The values that follow come from ChEMBL document CHEMBL4406799, “Identification of benzo[cd]indol-2(1H)-ones as novel Atg4B inhibitors via a structure-based virtual screening and a novel AlphaScreen assay” (Eur J Med Chem, 2019).

SMILES strings stand for the structures. pIC50: −log10 of the molar value. Activity calls are given as the source filed them. No cut-off for these calls is given here.

In experiment [1] the target is T1, Papain (Carica papaya) (UniProt P00784).
T1 sequence (whole entry): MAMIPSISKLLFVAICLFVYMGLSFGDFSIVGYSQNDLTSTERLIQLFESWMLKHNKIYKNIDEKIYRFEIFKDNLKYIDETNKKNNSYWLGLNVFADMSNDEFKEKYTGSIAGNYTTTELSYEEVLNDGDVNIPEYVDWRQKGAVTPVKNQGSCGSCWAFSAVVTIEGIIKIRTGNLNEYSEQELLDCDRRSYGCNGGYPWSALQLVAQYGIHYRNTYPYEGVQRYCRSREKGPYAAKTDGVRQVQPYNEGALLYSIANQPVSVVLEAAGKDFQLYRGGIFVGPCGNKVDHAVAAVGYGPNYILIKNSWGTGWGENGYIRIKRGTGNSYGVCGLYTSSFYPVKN
Description: Inhibition of papaya papain at 50 uM using L-pyroglutamyl-L-phenylalanyl-L-leucine-p-nitroanilide as substrate measured after 30 mins.

Experiment [2] relates to HT-29. Description: Antiproliferative activity against human HT-29 cells assessed as reduction in cell viability at 75 uM in presence of oxaliplatin after 24 to 72 hrs by MTT assay. In kind it is functional, cell-based.
Experiment [3] concerns HT-29. The note with it: Homo sapiens, 100 to 200 uM.
Description: Inhibition of autophagic flux in human HT-29 cells assessed as increase in LC3-2 expression at 100 to 200 uM after 16 hrs by Western blot analysis
In experiment [4] the test system is HT-29. The note with it: Homo sapiens, 100 to 200 uM. The source holds these as a separate data set.
Description: Inhibition of autophagic flux in human HT-29 cells assessed as reduction in p62 degradation at 100 to 200 uM after 16 hrs by Western blot analysis
Experiment [5] has as its target T2, Cysteine protease ATG4B (Homo sapiens, UniProt Q9Y4P1).
T2 sequence (Q9Y4P1 whole entry): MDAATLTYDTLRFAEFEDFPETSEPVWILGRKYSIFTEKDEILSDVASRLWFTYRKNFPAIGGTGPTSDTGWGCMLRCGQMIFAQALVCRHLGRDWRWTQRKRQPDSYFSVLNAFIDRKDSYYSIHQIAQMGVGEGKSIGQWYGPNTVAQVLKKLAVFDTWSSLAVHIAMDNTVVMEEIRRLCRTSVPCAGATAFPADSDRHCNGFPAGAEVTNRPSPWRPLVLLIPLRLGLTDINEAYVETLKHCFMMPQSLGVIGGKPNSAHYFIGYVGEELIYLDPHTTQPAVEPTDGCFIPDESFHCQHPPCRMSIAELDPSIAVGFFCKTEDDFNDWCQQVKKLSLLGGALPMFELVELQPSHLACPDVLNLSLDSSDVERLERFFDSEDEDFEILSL
Description: Inhibition of recombinant ATG4B (unknown origin) expressed in Escherichia coli BL21(DE3) using LC3-PLA2 as substrate by fluoroscence based assay.

Experiment [6] addresses T2, Cysteine protease ATG4B. The experiment can be described thus: Inhibition of ATG4B (unknown origin) using N-(His)6-LC3B(L123C)Biotin as substrate preincubated for 30 mins and measured after 1 hr by AlphaScreen method. The note with it: for pIC50: read-out: IC50.
Experiment [7] concerns the target T2, Cysteine protease ATG4B. Description: Inhibition of ATG4B (unknown origin) using N-(His)6-LC3B(L123C) as substrate preincubated for 1 hr followed by substrate addition and measured after 30 mins MS-based analysis.

As to `O=C(N[C@@H](Cc1ccccc1)C(=O)CCl)OCc1ccccc1`, the inhibition entry in experiment [1] is “Active”.
With `CCCCC(O)CNc1cc2c3c(cccc3c1)C(=O)N2` (stereo unspecified), the inhibition result in experiment [1] is “inactive”. Further, the outcome in experiment [2] was Active. Moreover, the inhibition result in experiment [3] and in experiment [4] was “Active” in each case.
For `O=c1oc2c(O)c(O)cc3c(=O)oc4c(O)c(O)cc1c4c23` [ELLAGIC ACID], the pIC50 in experiment [5] was 5.52.
Consider `O=C1Nc2cccc3cc(NCC(O)CCl)cc1c23` (stereo unspecified), for which the inhibition result in experiment [1] was “inactive”.
In the case of `Oc1ccc(C2=Nc3cccc4cccc(c34)N2)cc1`, the figures for the pIC50 in experiment [6] and in experiment [7] were 3.52 and 3.82, respectively.
For `O=C1Nc2ccc(NCC(O)CCl)c3cccc1c23` (stereo unspecified), in that order: < 3.52 and 3.55.
For `CCCCC(O)CNc1cc2c3c(cccc3c1)NC2=O` (stereo unspecified), in that order: 3.63 and 3.67.
Consider `C=CCCC(O)CNc1cc2c3c(cccc3c1)NC2=O` (stereo unspecified), for which the IC50 entry in experiment [6] is listed as “Not Active”.
The same measure, in the same setting: as for `O=C1NC(=O)c2cc(NCC(O)CCl)cc3cccc1c23` (stereo unspecified), the entry is “Not Active”.
On to `O=C(/C=C1/Nc2cc(Cl)c(Cl)cc2NC1=O)N/N=C/c1ccccc1O`, for which the pIC50 in experiment [6] was 3.50.
